Test results reported in US11932885B2, “Use of glutamine synthetase for treating hyperammonemia” (Thoeris GmbH, priority 2017, dated 2024).

Assays:
[1] = mouse, in vivo, sc, 2.5 mg/kg
Experimental: The ELISA was conducted according to the protocol outlined by the manufacturer (Abcam PEG ELISA kit, ab133065). […] N=2 animals in each group.

BDL rats [2] = assay: Ammonia blood levels in BDL rats; format: in vivo; settings: BDL rats on hyperammonemic diet
Experimental: All experiments were performed in accordance with the Animals (Scientific Procedures) Act of 1986, which was revised according to the European Directive2010/63/EU. All animals received humane care according to the criteria outlined in the Guide for the Care and Use of Laboratory Animals (National Institutes of Health publication 86-23; revised 1985). All the animals used in these experiments were Male Sprague-Dawley rats (body weight, 250 g at the beginning of the experiments) were obtained from Charles River Laboratories (Kent, UK) and divided into 5 groups: bile duct ligated animals+ammonia+saline serum (BDL+HA+SS, n=6), bile duct ligated animals+ammonia+sodium phenylacetate (BDL+HA+SP, n=6), bile duct ligated animals+ammonia+sodium phenylacetate+glutamine synthetase (BDL+HA+SP+GS, n=5), bile duct ligated animals+ammonia+glutamine synthetase (BDL+HA+GS, n=6), sham-operated animals+glutamine synthetase (SHAM+GS, n=5). Treatment comprising SP and GS may be referred to as “COMBO”. […]
Plasma samples were collected from the leg vein at different timepoints in all groups. The timepoints were counted after the treatment with glutamine synthetase as follows: 6 hours, 24 hours, 48 hours and 5 days. […]

BDL rats [3] = assay: Brain oedema in the prefrontal cortex of BDL rats (dry weight technique); format: in vivo; settings: versus control without treatment
Experimental: (§1) All experiments were performed in accordance with the Animals (Scientific Procedures) Act of 1986, which was revised according to the European Directive2010/63/EU. All animals received humane care according to the criteria outlined in the Guide for the Care and Use of Laboratory Animals (National Institutes of Health publication 86-23; revised 1985). All the animals used in these experiments were Male Sprague-Dawley rats (body weight, 250 g at the beginning of the experiments) were obtained from Charles River Laboratories (Kent, UK) and divided into 5 groups: bile duct ligated animals+ammonia+saline serum (BDL+HA+SS, n=6), bile duct ligated animals+ammonia+sodium phenylacetate (BDL+HA+SP, n=6), bile duct ligated animals+ammonia+sodium phenylacetate+glutamine synthetase (BDL+HA+SP+GS, n=5), bile duct ligated animals+ammonia+glutamine synthetase (BDL+HA+GS, n=6), sham-operated animals+glutamine synthetase (SHAM+GS, n=5). Treatment comprising SP and GS may be referred to as “COMBO”.
This was measured using the dry weight technique as described previously. […] The dry weight was determined after Eppendorf's loaded with individual brain samples were dried in an oven at 60° C. for 7 days. Tissue water content was then calculated as % H2O=(1-dry wt/wet wt)×100%.

BDL rats [4] = assay: RotaRod-Accelerod test in BDL rats; format: in vivo
Experimental: as §1
This test of motor performance consists of a motor-driven rotating rod that enables us to assess motor coordination and resistance to fatigue (Jones and Roberts 1968). […] Latency to fall off the rod and the actual rotation speed were recorded in the pre- and post-treatment conditions for all groups after 1 hour treatment.

Compound | plasma level (PEG ELISA) [1] | ammonia levels in the blood (BDL rats [2]) | brain oedema in the prefrontal cortex (BDL rats [3]) | rotarod grip test performance (BDL rats [4])
wt GS: Non-conjugated human glutamine synthetase with N-terminal His-tag and GGGGS linker (SEQ ID NO: 4), expressed in E. coli | very low or undetectable levels |  |  | 
O=C([O-])Cc1ccccc1.[Na+] [SP, sodium phenylacetate] |  | significant reduction of ammonia levels in the blood | did not statistically significantly reduce the swelling | did not lead to stastically significant effects
